# Reference: US7569562B2, “N-substituted heterocyclic sulfonamides” (Elan Pharmaceuticals, Inc., priority 2005, dated 2009)
# System: gamma secretase cleavage of NotchΔE (ZEDN1)
# Test: Notch Signaling Assay for Selective Inhibitors of Gamma Secretase (reporter gene based)
# Format: cell-based
# Details: Rattus norvegicus; assay not given; it follows the Notch signaling (4xwtCBF1 Luciferase reporter) method
# Source text: Notch Signaling Assay for Selective Inhibitors of Gamma Secretase.
# Due to the importance of Notch signaling in cell fate determination, and tissue differentiation during both development and in the adult, inhibition of Notch signaling by gamma secretase inhibitors is postulated to be a limiting factor in their therapeutic utility. In order to identify selective gamma secretase inhibitors, we have employed a reporter gene based Notch signaling assay using a constitutively active rat Notch1 construct (ZEDN1) provided by Dr Gerry Weinmaster, who is at the University of California at Los Angeles (UCLA) as described in Shawber, C., D. Nofziger, J. J. Hsieh, C. Lindsell, O. Bogler, D. Hayward and G. Weinmaster (1996). “Notch signaling inhibits muscle cell differentiation through a CBF1-independent pathway.” Development 122(12): 3765-73 in combination with the CBF1 repressible Luciferase reporter gene 4xwtCBF1Luc (Hsieh, J. J., T. Henkel, P. Salmon, E. Robey, M. G. Peterson and S. D. Hayward (1996). “Truncated mammalian Notch1 activates CBF1/RBPJk-repressed genes by a mechanism resembling that of Epstein-Barr virus EBNA2.” Mol Cell Biol 16(3): 952-9).
# When 4xwtCBF1 Luciferase is co-transfected with NotchΔE (ZEDN1), γ-secretase cleavage of NotchΔE releases the Notch intracellular domain (NICD), which translocates to the nucleus and de-represses CBF1 mediated transcriptional repression, leading to transcription of the Luciferase reporter gene. Luciferase activity is easily assayed in cell extracts using commercially available kits. The activity of the reporter gene is directly correlated with gamma secretase cleavage of NotchΔE, and as such, a reduction in Luciferase activity provides a convenient measure of inhibition of gamma secretase cleavage of NotchΔE. A comparison of the IC50 values of compounds for inhibition of Notch signaling versus inhibition of β-amyloid production in 293sw cells is employed to guide in the selection of compounds that have the desired property of potent inhibition of β-amyloid synthesis with minimal inhibition of Notch Signaling.
row,SMILES,IC50
1,O=C1NCCCC[C@H]1N(CC1CCCCO1)S(=O)(=O)c1ccc(Cl)nc1 (stereo partly drawn) [6-Chloro-pyridine-3-sulfonic acid [(R)-2-oxo-azepan-3-yl]-(tetrahydro-pyran-2-ylmethyl)-amide],> 1000 nM
2,Cc1ccc(S(=O)(=O)N(Cc2ccc(Br)cc2)[C@@H]2CCCCNC2=O)s1 [5-Methyl-thiophene-2-sulfonic acid (4-bromo-benzyl)-[(R)-2-oxo-azepan-3-yl]-amide],> 1000 nM
3,Cn1nnc2cc(CN([C@@H]3CCCCNC3=O)S(=O)(=O)c3ccc(Cl)s3)ccc21 [5-Chloro-thiophene-2-sulfonic acid (1-methyl-1H-benzotriazol-5-ylmethyl)-[(R)-2-oxo-azepan-3-yl]-amide],100 to 1000 nM

# Further lines, results first:
row,IC50,SMILES
1,100 to 1000 nM,O=C1NCCCC[C@H]1N(Cc1ccc(Br)cc1)S(=O)(=O)c1ccc(Cl)s1 [5-Chloro-thiophene-2-sulfonic acid (4-bromo-benzyl)-[(R)-2-oxo-azepan-3-yl]-amide]
2,1 to 100 nM,CC(=Cc1ccccc1)CN([C@@H]1CCCCNC1=O)S(=O)(=O)c1ccc(Cl)nc1 [6-Chloro-pyridine-3-sulfonic acid (2-methyl-3-phenyl-allyl)-[(R)-2-oxo-azepan-3-yl]-amide]
3,1 to 100 nM,Cn1nnc2cc(CN([C@@H]3CCCCNC3=O)S(=O)(=O)c3ccc(Cl)nc3)ccc21 [6-Chloro-pyridine-3-sulfonic acid (1-methyl-1H-benzotriazol-5-ylmethyl)-[(R)-2-oxo-azepan-3-yl]-amide]
4,1 to 100 nM,O=C1NCCCC[C@H]1N(CC=Cc1cccnc1)S(=O)(=O)c1ccc(Cl)nc1 [6-Chloro-pyridine-3-sulfonic acid [(R)-2-oxo-azepan-3-yl]-(3-pyridin-3-yl-allyl)-amide]
5,100 to 1000 nM,O=C1NCCCC[C@H]1N(Cc1ccc(Br)cc1)S(=O)(=O)c1cccnc1 [Pyridine-3-sulfonic acid (4-bromo-benzyl)-[(R)-2-oxo-azepan-3-yl]-amide]
